Reference: ChEMBL document CHEMBL3885861, “Open TG-GATES”

Species: Rattus norvegicus
Test: Open TG-GATES - Regimen: Single
Type: toxicity, organism-based, Sprague-Dawley
Parameters: regimen Single, gender Male, age 6 weeks
Settings: in vivo, po, 0 mg/kg, route gavage, dose level Control; for APTT / Bas / Eos / Fbg / Hb / Ht / Lym / MCHC / MCV / Mono / Neu / PT / Plat / RBC / Ret / WBC: tissue Blood; for KIDNEY_L / KIDNEY_R / KIDNEY_TOTAL: tissue Kidney; for LIVER: tissue Liver; for ALP / ALT / AST / BUN / CRE / Ca / Cl / DBIL / GLC / IP / K / LDH / Na / PL / RALB / TBIL / TC / TG / TP / gamma-GTP: tissue Plasma

CS(=O)(=O)Nc1ccc([N+](=O)[O-])cc1Oc1ccccc1 [NIMESULIDE]
TERMINAL_BW (3 h): 201.3 g | APTT (3 h): 17.1 s | Bas (3 h): 0% | Eos (3 h): 1.4% | Fbg (3 h): 212 mg/dL | Hb (3 h): 14.1 g/dL | Ht (3 h): 41.1% | Lym (3 h): 77% | MCHC (3 h): 34.3% | MCV (3 h): 64.2 fL | Mono (3 h): 6.2% | Neu (3 h): 15.6% | PT (3 h): 12.4 s | Plat (3 h): 118.2 x10_4/uL | RBC (3 h): 640.8 x10_4/ul | Ret (3 h): 10.6% | WBC (3 h): 89.8 x10_2/uL | KIDNEY_L (3 h): 0.9 g | KIDNEY_R (3 h): 0.9 g | KIDNEY_TOTAL (3 h): 1.9 g | LIVER (3 h): 9.7 g | ALP (3 h): 917.4 IU/L | ALT (3 h): 37.4 IU/L | AST (3 h): 63.4 IU/L | BUN (3 h): 12.4 mg/dL | CRE (3 h): 0.5 mg/dL | Ca (3 h): 11 mg/dL | Cl (3 h): 105.4 meq/L | DBIL (3 h): 0.048 mg/dL | GLC (3 h): 197.2 mg/dL | IP (3 h): 9.6 mg/dL | K (3 h): 4.8 meq/L | LDH (3 h): 65.8 IU/L | Na (3 h): 141.8 meq/L | PL (3 h): 133.6 mg/dL | RALB (3 h): 3.7 g/dL | TBIL (3 h): 0.3 mg/dL | TC (3 h): 75 mg/dL | TG (3 h): 57.4 mg/dL | TP (3 h): 5.3 g/dL | gamma-GTP (3 h): 1.6 IU/L | TERMINAL_BW (6 h): 196.6 g | APTT (6 h): 17.7 s | Bas (6 h): 0% | Eos (6 h): 1% | Fbg (6 h): 209.6 mg/dL | Hb (6 h): 13.6 g/dL | Ht (6 h): 40.3% | Lym (6 h): 72.6% | MCHC (6 h): 33.7% | MCV (6 h): 65.3 fL | Mono (6 h): 7.8% | Neu (6 h): 19% | PT (6 h): 12.5 s | Plat (6 h): 116.9 x10_4/uL | RBC (6 h): 617.4 x10_4/ul | Ret (6 h): 11.4% | WBC (6 h): 109.3 x10_2/uL | KIDNEY_L (6 h): 0.8 g | KIDNEY_R (6 h): 0.9 g | KIDNEY_TOTAL (6 h): 1.7 g | LIVER (6 h): 8.5 g | ALP (6 h): 832.8 IU/L | ALT (6 h): 35.8 IU/L | AST (6 h): 63.2 IU/L | BUN (6 h): 12.4 mg/dL | CRE (6 h): 0.6 mg/dL | Ca (6 h): 10.7 mg/dL | Cl (6 h): 105.6 meq/L | DBIL (6 h): 0.062 mg/dL | GLC (6 h): 188 mg/dL | IP (6 h): 10.2 mg/dL | K (6 h): 4.9 meq/L | LDH (6 h): 62.6 IU/L | Na (6 h): 140.4 meq/L | PL (6 h): 139.6 mg/dL | RALB (6 h): 3.7 g/dL | TBIL (6 h): 0.4 mg/dL | TC (6 h): 83.2 mg/dL | TG (6 h): 52.8 mg/dL | TP (6 h): 5.2 g/dL | gamma-GTP (6 h): 2 IU/L | TERMINAL_BW (9 h): 196.3 g | APTT (9 h): 17.5 s | Bas (9 h): 0% | Eos (9 h): 1% | Fbg (9 h): 204.8 mg/dL | Hb (9 h): 13.4 g/dL | Ht (9 h): 39.5% | Lym (9 h): 71.6% | MCHC (9 h): 33.9% | MCV (9 h): 64.3 fL | Mono (9 h): 9% | Neu (9 h): 18.6% | PT (9 h): 12.4 s | Plat (9 h): 110.8 x10_4/uL | RBC (9 h): 614 x10_4/ul | Ret (9 h): 10.8% | WBC (9 h): 94 x10_2/uL | KIDNEY_L (9 h): 0.9 g | KIDNEY_R (9 h): 1 g | KIDNEY_TOTAL (9 h): 1.9 g | LIVER (9 h): 8.3 g | ALP (9 h): 898.6 IU/L | ALT (9 h): 31.4 IU/L | AST (9 h): 59.8 IU/L | BUN (9 h): 12.4 mg/dL | CRE (9 h): 0.5 mg/dL | Ca (9 h): 10.6 mg/dL | Cl (9 h): 106 meq/L | DBIL (9 h): 0.028 mg/dL | GLC (9 h): 193.6 mg/dL | IP (9 h): 10.3 mg/dL | K (9 h): 5 meq/L | LDH (9 h): 79.2 IU/L | Na (9 h): 138.4 meq/L | PL (9 h): 128.4 mg/dL | RALB (9 h): 4 g/dL | TBIL (9 h): 0.3 mg/dL | TC (9 h): 70.8 mg/dL | TG (9 h): 47.6 mg/dL | TP (9 h): 5.3 g/dL | gamma-GTP (9 h): 1.2 IU/L | TERMINAL_BW (24 h): 217.2 g | APTT (24 h): 16.3 s | Bas (24 h): 0% | Eos (24 h): 1% | Fbg (24 h): 201 mg/dL | Hb (24 h): 13.1 g/dL | Ht (24 h): 38.9% | Lym (24 h): 71.6% | MCHC (24 h): 33.7% | MCV (24 h): 66 fL | Mono (24 h): 10.8% | Neu (24 h): 16.6% | PT (24 h): 11.7 s | Plat (24 h): 118.1 x10_4/uL | RBC (24 h): 590.2 x10_4/ul | Ret (24 h): 10.9% | WBC (24 h): 107.9 x10_2/uL | KIDNEY_L (24 h): 1 g | KIDNEY_R (24 h): 1 g | KIDNEY_TOTAL (24 h): 1.9 g | LIVER (24 h): 10.4 g | ALP (24 h): 1023 IU/L | ALT (24 h): 35 IU/L | AST (24 h): 62.8 IU/L | BUN (24 h): 18.4 mg/dL | CRE (24 h): 0.5 mg/dL | Ca (24 h): 10.7 mg/dL | Cl (24 h): 104.4 meq/L | DBIL (24 h): 0.012 mg/dL | GLC (24 h): 190.4 mg/dL | IP (24 h): 7.8 mg/dL | K (24 h): 4.9 meq/L | LDH (24 h): 81.4 IU/L | Na (24 h): 139.6 meq/L | PL (24 h): 150.8 mg/dL | RALB (24 h): 4.1 g/dL | TBIL (24 h): 0.3 mg/dL | TC (24 h): 79.8 mg/dL | TG (24 h): 86.8 mg/dL | TP (24 h): 5.5 g/dL | gamma-GTP (24 h): 1.8 IU/L
